Read-outs that look alike come from different tables or passages of the source.
Columns and labels:
[1] = system: phosphorylation of Serine 473 in Akt, HCT 116 human colon carcinoma cells; assay: Cell-based phospho-AKT Ser473 assay (MSD sandwich immunoassay, IGF-1 stimulated); conditions: Homo sapiens
Procedure, shortened: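 Akt Ser473 phosphorylation was measured by MSD electrochemiluminescent sandwich immunoassay in lysates of HCT116 cells (16,000 cells/well). Cells received a compound dilution series for 2 h at 37 °C before a 15 min IGF-1 (100 ng/ml) stimulus, with IC50 calculated from the dose-response.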

PI3K α = molecular target: T1, PI3K α (Homo sapiens, UniProt P42336); assay: In vitro PI3 kinase enzyme assay (alpha), ATP loss, bioluminescence; type: biochemical; conditions: read-out: PI3Kα ATP loss IC50;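 also: purified p110α/p85 heterodimer acting on PtdIns(4,5)P2 at room temperature, remaining ATP read by luminescence, inhibition scaled between compound-free wells with and without enzyme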
T1 construct: Full length p110 subunits of PI3K α, β and δ, N-terminally labeled with polyHis tag; polyHis (N); made in house; host or cells: Sf9 insect cells (baculovirus)
Method: Full length p110 subunits of PI3K α, β and δ, N-terminally labeled with polyHis tag, were co-expressed with p85 in baculovirus expression vectors in sf9 insect cells. P110/p85 heterodimers were purified by sequential Ni-NTA, Q-HP, and Superdex-100 chromatography. Purified α, β and δ isozymes were stored at −20° C. in 20 mM Tris, pH 8, 0.2M NaCl, 50% glycerol, 5 mM DTT, 2 mM Na cholate.
PI3K enzyme assays (alpha, beta, delta and gamma) were performed in 25 mL with the above final concentrations of components in white polypropylene plates (Costar catalogue #3355). Phosphatidyl inositol phosphoacceptor, PtdIns(4,5)P2 (eg. P4508) was obtained from Echelon Biosciences. The ATPase activity of the alpha and gamma isozymes was not greatly stimulated by PtdIns(4,5)P2 under these conditions and was therefore omitted from the assay of these isozymes. Test compounds were dissolved in DMSO and diluted with three-fold serial dilutions. The compound in DMSO (1 μL) was added per test well, and the inhibition relative to reactions containing no compound, with and without enzyme was determined. After assay incubation at RT, the reaction was stopped and residual ATP determined by addition of an equal volume of a commercial ATP bioluminescence kit (Perkin Elmer EasyLite) according to the manufacturer's instructions, and detected using an Analyst GT luminometer.

PI3K β = molecular target: T2, PI3K β (Homo sapiens, UniProt P42338); assay: In vitro PI3 kinase enzyme assay (beta), ATP loss, bioluminescence; type: biochemical; conditions: read-out: PI3Kβ ATP loss IC50;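 also: purified p110β/p85 heterodimer with PtdIns(4,5)P2 as acceptor, incubated at room temperature, leftover ATP read by luminescence, inhibition scaled to compound-free wells with and without enzyme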
T2 construct: Full length p110 subunits of PI3K α, β and δ, N-terminally labeled with polyHis tag; polyHis (N); made in house; host or cells: Sf9 insect cells (baculovirus)

[2] = HCT-116, HCT 116 cells, read-out: HCT 116 pAKT IC50
[3] = HCT-116, read-out: HCT 116 pAKT IC50

T2 sequence (P42338 whole entry): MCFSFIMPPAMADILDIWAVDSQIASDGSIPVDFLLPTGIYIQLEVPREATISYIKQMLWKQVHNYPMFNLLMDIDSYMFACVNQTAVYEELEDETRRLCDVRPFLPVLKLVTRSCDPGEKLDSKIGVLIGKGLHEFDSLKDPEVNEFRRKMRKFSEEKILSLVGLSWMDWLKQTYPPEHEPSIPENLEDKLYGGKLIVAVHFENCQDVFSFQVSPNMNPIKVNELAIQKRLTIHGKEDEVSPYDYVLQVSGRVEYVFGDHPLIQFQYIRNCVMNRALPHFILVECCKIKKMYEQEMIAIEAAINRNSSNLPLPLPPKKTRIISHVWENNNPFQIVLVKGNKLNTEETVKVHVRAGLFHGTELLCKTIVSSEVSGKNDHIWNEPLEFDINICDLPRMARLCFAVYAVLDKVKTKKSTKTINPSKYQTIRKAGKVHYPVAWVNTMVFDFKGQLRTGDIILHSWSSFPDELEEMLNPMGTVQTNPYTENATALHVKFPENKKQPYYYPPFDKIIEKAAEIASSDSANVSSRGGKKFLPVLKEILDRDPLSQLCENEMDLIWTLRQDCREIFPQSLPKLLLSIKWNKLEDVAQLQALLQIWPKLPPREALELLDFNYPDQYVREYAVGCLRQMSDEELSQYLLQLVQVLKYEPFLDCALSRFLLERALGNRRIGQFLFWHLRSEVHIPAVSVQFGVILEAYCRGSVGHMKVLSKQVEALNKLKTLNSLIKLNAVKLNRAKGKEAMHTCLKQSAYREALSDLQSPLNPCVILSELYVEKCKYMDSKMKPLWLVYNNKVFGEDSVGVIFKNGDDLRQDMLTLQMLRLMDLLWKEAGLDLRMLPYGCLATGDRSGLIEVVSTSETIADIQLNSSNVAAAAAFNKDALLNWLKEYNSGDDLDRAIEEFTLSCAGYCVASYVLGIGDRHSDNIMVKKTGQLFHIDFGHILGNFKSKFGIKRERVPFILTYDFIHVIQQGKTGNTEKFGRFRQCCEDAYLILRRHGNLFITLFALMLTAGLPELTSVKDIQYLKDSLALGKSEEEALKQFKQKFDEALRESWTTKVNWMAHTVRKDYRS
T2 sequence (P27986 whole entry partner): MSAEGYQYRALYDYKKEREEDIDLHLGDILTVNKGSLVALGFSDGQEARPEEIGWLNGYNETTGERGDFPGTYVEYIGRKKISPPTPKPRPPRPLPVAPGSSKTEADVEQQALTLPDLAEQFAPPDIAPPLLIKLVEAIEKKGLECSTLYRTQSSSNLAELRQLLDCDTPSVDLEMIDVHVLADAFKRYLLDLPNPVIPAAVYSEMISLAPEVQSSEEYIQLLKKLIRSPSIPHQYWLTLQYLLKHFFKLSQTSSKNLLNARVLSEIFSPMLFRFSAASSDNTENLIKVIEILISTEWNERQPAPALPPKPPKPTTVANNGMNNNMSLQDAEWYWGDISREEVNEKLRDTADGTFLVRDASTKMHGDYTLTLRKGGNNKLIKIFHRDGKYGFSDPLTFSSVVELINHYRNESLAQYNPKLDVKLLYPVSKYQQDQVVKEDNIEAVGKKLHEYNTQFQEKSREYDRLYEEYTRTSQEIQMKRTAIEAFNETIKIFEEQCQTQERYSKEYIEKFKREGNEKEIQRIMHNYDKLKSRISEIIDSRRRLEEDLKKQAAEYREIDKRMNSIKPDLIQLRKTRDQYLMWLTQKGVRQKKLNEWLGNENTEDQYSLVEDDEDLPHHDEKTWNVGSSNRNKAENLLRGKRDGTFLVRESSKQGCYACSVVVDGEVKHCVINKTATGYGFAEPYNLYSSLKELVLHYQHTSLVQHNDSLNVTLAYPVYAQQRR
T1 sequence (P42336 whole entry, species assumed): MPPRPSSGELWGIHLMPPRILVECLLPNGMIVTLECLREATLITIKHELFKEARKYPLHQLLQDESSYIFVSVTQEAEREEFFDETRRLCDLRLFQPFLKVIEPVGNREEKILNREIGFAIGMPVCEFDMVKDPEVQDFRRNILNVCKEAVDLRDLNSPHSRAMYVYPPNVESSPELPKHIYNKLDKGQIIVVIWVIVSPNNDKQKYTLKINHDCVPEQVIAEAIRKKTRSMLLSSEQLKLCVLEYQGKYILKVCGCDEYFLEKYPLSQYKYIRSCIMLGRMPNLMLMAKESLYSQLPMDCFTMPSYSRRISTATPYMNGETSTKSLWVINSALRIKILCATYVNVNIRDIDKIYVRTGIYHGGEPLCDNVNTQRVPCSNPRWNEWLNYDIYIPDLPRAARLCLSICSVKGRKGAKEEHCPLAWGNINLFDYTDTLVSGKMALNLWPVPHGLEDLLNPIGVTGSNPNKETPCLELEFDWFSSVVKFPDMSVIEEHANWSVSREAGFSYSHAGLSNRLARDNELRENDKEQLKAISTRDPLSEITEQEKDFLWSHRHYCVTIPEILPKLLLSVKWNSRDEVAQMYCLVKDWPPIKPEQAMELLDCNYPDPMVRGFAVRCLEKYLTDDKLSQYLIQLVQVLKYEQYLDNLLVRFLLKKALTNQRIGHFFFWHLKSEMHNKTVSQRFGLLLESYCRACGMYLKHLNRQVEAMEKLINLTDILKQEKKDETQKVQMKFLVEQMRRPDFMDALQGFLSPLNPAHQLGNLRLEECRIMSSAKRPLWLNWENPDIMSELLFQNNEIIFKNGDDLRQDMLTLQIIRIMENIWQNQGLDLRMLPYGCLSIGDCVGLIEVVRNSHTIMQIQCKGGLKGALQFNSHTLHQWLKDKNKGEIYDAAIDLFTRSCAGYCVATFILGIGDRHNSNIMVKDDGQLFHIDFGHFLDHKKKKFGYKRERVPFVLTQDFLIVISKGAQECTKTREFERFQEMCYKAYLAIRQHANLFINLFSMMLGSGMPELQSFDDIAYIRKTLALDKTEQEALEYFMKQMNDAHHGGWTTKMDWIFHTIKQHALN
T1 sequence (P27986 whole entry partner, species assumed): as the sequence (P27986 whole entry partner) above

Structure (SMILES): CC(=O)Nc1nc2ccc(-c3cncc(NS(=O)(=O)c4ccc(C(F)(F)F)cc4)c3)cc2s1 [Example 196, N-(6-(5-(4-(trifluoromethyl)phenylsulfonamido)pyridin-3-yl)benzo[d]thiazol-2-yl)acetamide]
- IC50 [1, 2]: 123 nM
- IC50 (PI3K α): 6.7 nM
- IC50 (PI3K β): 15.7 nM

Structure (SMILES): CC(=O)Nc1nc2ccc(-c3ccnc(NC4CCOCC4)n3)cc2s1 [Example 261, N-(6-(2-(tetrahydro-2H-pyran-4-ylamino)pyrimidin-4-yl)benzo[d]thiazol-2-yl)acetamide]
- IC50 [1, 2]: 1700 nM
- IC50 (PI3K α): 900 nM
- IC50 (PI3K β): 13100 nM

Structure (SMILES): COc1ccc(S(=O)(=O)Nc2cccc(-c3ccc4nc(NC(C)=O)sc4n3)c2)cc1 [Example 146, N-(5-(3-(4-methoxyphenylsulfonamido)phenyl)thiazolo[5,4-b]pyridin-2-yl)acetamide]
- IC50 [1, 3]: 373 nM
- IC50 (PI3K α): 117 nM
- IC50 (PI3K β): 359 nM

Structure (SMILES): CC(=O)Nc1nc2ccc(-c3cnc(Cl)c(NS(=O)(=O)c4ccc(C(C)O)cc4)c3)cc2s1 (stereo not drawn) [Example 256, N-(6-(6-chloro-5-(4-(1-hydroxyethyl)phenylsulfonamido)pyridin-3-yl)benzo[d]thiazol-2-yl)acetamide]
- IC50 [1, 2]: 9.9 nM
- IC50 (PI3K α): 5.2 nM
- IC50 (PI3K β): 7.3 nM

Structure (SMILES): Nc1nc2ccc(-c3cnc(Cl)c(NS(=O)(=O)c4ccc(F)cc4F)c3)cc2s1 [Example 311, N-(5-(2-amino-1,3-benzothiazol-6-yl)-2-chloro-3-pyridinyl)-2,4-difluorobenzenesulfonamide]
- IC50 [1, 2]: 222 nM
- IC50 (PI3K α): 17.1 nM
- IC50 (PI3K β): 49.1 nM

Structure (SMILES): CC(=O)Nc1nc2ccc(-c3cnc(C)c(NS(=O)(=O)c4cccc(OC(F)F)c4)c3)cc2s1 [Example 115, N-(6-(5-(((3-(difluoromethoxy)phenyl)sulfonyl)amino)-6-methyl-3-pyridinyl)-1,3-benzothiazol-2-yl)acetamide]
- IC50 [1, 2]: 30.7 nM
- IC50 (PI3K α): 7.1 nM
- IC50 (PI3K β): 15 nM

Structure (SMILES): CC(=O)Nc1nc2ccc(-c3cnc(Cl)c(NS(=O)(=O)c4ccc(C(C)=O)cc4)c3)cc2s1 [Example 119, N-(6-(5-(((4-acetylphenyl)sulfonyl)amino)-6-chloro-3-pyridinyl)-1,3-benzothiazol-2-yl)acetamide]
- IC50 [1, 2]: 34.5 nM
- IC50 (PI3K α): 12.3 nM
- IC50 (PI3K β): 13.5 nM

Structure (SMILES): CC(=O)Nc1nc2ccc(-c3cnc(Cl)c(NS(=O)(=O)c4cccs4)c3)cc2s1 [Example 186, N-(6-(6-chloro-5-(thiophene-2-sulfonamido)pyridin-3-yl)benzo[d]thiazol-2-yl)acetamide]
- IC50 [1, 2]: 15.6 nM
- IC50 (PI3K α): 6.6 nM
- IC50 (PI3K β): 14.3 nM

Structure (SMILES): CC(=O)Nc1nc2ccc(-c3cncc(NS(=O)(=O)c4cccc(F)c4)c3)cc2s1 [Example 199, N-(6-(5-(3-fluorophenylsulfonamido)pyridin-3-yl)benzo[d]thiazol-2-yl)acetamide]
- IC50 [1, 2]: 75 nM
- IC50 (PI3K α): 3.8 nM
- IC50 (PI3K β): 10.3 nM

Structure (SMILES): CN(C)c1cc(-c2ccc3nc(NC(=O)Oc4ccccc4)sc3c2)cnc1Cl [Example 270, Phenyl 6-(6-chloro-5-(dimethylamino)pyridin-3-yl)benzo[d]thiazol-2-ylcarbamate]
- IC50 [1, 3]: > 5000 nM
- IC50 (PI3K α): 34.6 nM
- IC50 (PI3K β): 2460 nM

Structure (SMILES): CC(=O)Nc1nc2ccc(-c3cncc(S(=O)(=O)c4ccccc4F)n3)cc2s1 [Example 121, N-(6-(6-((2-fluorophenyl)sulfonyl)-2-pyrazinyl)-1,3-benzothiazol-2-yl)acetamide]
- IC50 [1, 2]: 190 nM
- IC50 (PI3K α): 19.1 nM
- IC50 (PI3K β): 496 nM

Structure (SMILES): CC(=O)Nc1nc2ccc(-c3ccnc(Sc4ccccc4Br)n3)cc2s1 [Example 134, N-(6-(2-((2-bromophenyl)sulfanyl)-4-pyrimidinyl)-1,3-benzothiazol-2-yl)acetamide]
- IC50 [1, 2]: 1220 nM
- IC50 (PI3K α): 47 nM
- IC50 (PI3K β): 668 nM

Structure (SMILES): CC(=O)Nc1nc2ccc(-c3ccnc(Sc4c(C)cccc4C)n3)cc2s1 [Example 129, N-(6-(2-((2,6-dimethylphenyl)sulfanyl)-4-pyrimidinyl)-1,3-benzothiazol-2-yl)acetamide]
- IC50 [1, 2]: 978 nM
- IC50 (PI3K α): 38.3 nM
- IC50 (PI3K β): 477 nM

Structure (SMILES): CC(=O)Nc1nc2ccc(-c3cncc(N(C)S(=O)(=O)c4ccccc4)c3)cc2s1 [Example 224, N-(6-(5-(N-methylphenylsulfonamido)pyridin-3-yl)benzo[d]thiazol-2-yl)acetamide]
- IC50 [1, 2]: 145 nM
- IC50 (PI3K α): 111 nM
- IC50 (PI3K β): 1490 nM

Structure (SMILES): Cc1cc(F)ccc1S(=O)(=O)Nc1cc(-c2ccc3nc(N)sc3c2)cnc1Cl [Example 312, N-(5-(2-amino-1,3-benzothiazol-6-yl)-2-chloro-3-pyridinyl)-4-fluoro-2-methylbenzenesulfonamide]
- IC50 [1, 2]: 348 nM
- IC50 (PI3K α): 6 nM
- IC50 (PI3K β): 24.9 nM

Structure (SMILES): CC(=O)Nc1nc2ccc(-c3ccnc(OC(C)C)n3)cc2s1 [Example 6, N-(6-(2-(1-methylethoxy)-4-pyrimidinyl)-1,3-benzothiazol-2-yl)acetamide]
- IC50 [1, 2]: 920 nM
- IC50 (PI3K α): 240 nM
- IC50 (PI3K β): 2140 nM

Structure (SMILES): CC(=O)Nc1nc2ccc(-c3cnc(Cl)c(NC(C)C)c3)cc2s1 [Example 132, N-(6-(6-chloro-5-((1-methylethyl)amino)-3-pyridinyl)-1,3-benzothiazol-2-yl)acetamide]
- IC50 [1, 2]: 316 nM
- IC50 (PI3K α): 41.4 nM
- IC50 (PI3K β): 379 nM

Structure (SMILES): CC(=O)Nc1nc2ccc(-c3ccnc(OCc4cccnc4)n3)cc2s1 [Example 2, N-(6-(2-(3-pyridinylmethoxy)-4-pyrimidinyl)-1,3-benzothiazol-2-yl)acetamide]
- IC50 [1, 2]: 789 nM
- IC50 (PI3K α): 452 nM
- IC50 (PI3K β): > 40000 nM

Structure (SMILES): CC(=O)Nc1nc2ccc(-c3cncc(NS(=O)(=O)c4ccc(F)cc4)c3)nc2s1 [Example 228, N-(5-(5-(4-Fluorophenylsulfonamido)pyridin-3-yl)thiazolo[5,4-b]pyridin-2-yl)acetamide]
- IC50 [1, 2]: 54.9 nM
- IC50 (PI3K α): 7.5 nM
- IC50 (PI3K β): 55.9 nM

Structure (SMILES): CC(=O)Nc1nc2ccc(-c3cncc(NS(=O)(=O)c4ccccc4)c3)cc2s1 [Example 202, N-(6-(5-(phenylsulfonamido)pyridin-3-yl)benzo[d]thiazol-2-yl)acetamide]
- IC50 [1, 2]: 271 nM
- IC50 (PI3K α): 5.6 nM
- IC50 (PI3K β): 31.7 nM

Structure (SMILES): CC(=O)Nc1nc2ccc(-c3cncc(NS(=O)(=O)c4ccc(F)cc4)c3)cc2s1 [Example 198, N-(6-(5-(4-fluorophenylsulfonamido)pyridin-3-yl)benzo[d]thiazol-2-yl)acetamide]
- IC50 [1, 2]: 40.4 nM
- IC50 (PI3K α): 5.3 nM
- IC50 (PI3K β): 14.7 nM

Structure (SMILES): CC(=O)Nc1nc2ccc(-c3cnc(Cl)c(NS(=O)(=O)c4ccc(O)cc4)c3)cc2s1 [Example 174, N-(6-(6-chloro-5-(4-hydroxyphenylsulfonamido)pyridin-3-yl)benzo[d]thiazol-2-yl)acetamide]
- IC50 [1, 2]: 15.5 nM
- IC50 (PI3K α): 7.2 nM
- IC50 (PI3K β): 12.3 nM

Structure (SMILES): CC(=O)Nc1nc2ccc(-c3ccnc(Sc4ccccc4Cl)n3)cc2s1 [Example 125, N-(6-(2-((2-chlorophenyl)sulfanyl)-4-pyrimidinyl)-1,3-benzothiazol-2-yl)acetamide]
- IC50 [1, 2]: 548 nM
- IC50 (PI3K α): 25.4 nM
- IC50 (PI3K β): 425 nM

Structure (SMILES): Nc1nc2ccc(-c3cnc(Cl)c(NS(=O)(=O)c4ccc(Cl)cc4Cl)c3)cc2s1 [Example 310, N-(5-(2-amino-1,3-benzothiazol-6-yl)-2-chloro-3-pyridinyl)-2,4-dichlorobenzenesulfonamide]
- IC50 [1, 2]: 402 nM
- IC50 (PI3K α): 7.6 nM
- IC50 (PI3K β): 17.4 nM

Structure (SMILES): CC(=O)Nc1nc2ccc(-c3cncc(NS(=O)(=O)c4cccc(C(F)(F)F)c4)c3)cc2s1 [Example 197, N-(6-(5-(3-(trifluoromethyl)phenylsulfonamido)pyridin-3-yl)benzo[d]thiazol-2-yl)acetamide]
- IC50 [1, 2]: 79.8 nM
- IC50 (PI3K α): 9.4 nM
- IC50 (PI3K β): 11.9 nM

Structure (SMILES): CC(=O)Nc1nc2ccc(-c3cnc(Cl)c(O)c3)cc2s1 [Example 301, N-(6-(6-chloro-5-hydroxypyridin-3-yl)benzo[d]thiazol-2-yl)acetamide]
- IC50 [1, 2]: 100 nM
- IC50 (PI3K α): 5 nM
- IC50 (PI3K β): 94.1 nM

Structure (SMILES): Nc1nc2ccc(-c3cnc(Cl)c(NS(=O)(=O)c4ccc(C(F)(F)F)cc4Cl)c3)cc2s1 [Example 308, N-(5-(2-amino-1,3-benzothiazol-6-yl)-2-chloro-3-pyridinyl)-2-chloro-4-(trifluoromethyl)benzenesulfonamide]
- IC50 [1, 2]: 501 nM
- IC50 (PI3K α): 2.6 nM
- IC50 (PI3K β): 10.6 nM

Structure (SMILES): CC(=O)Nc1nc2ccc(-c3cncc(OCC#N)c3)cc2s1 [Example 288, N-(6-(5-(Cyanomethoxy)pyridin-3-yl)benzo[d]thiazol-2-yl)acetamide]
- IC50 [1, 2]: 236 nM
- IC50 (PI3K α): 83.3 nM
- IC50 (PI3K β): 464 nM

Structure (SMILES): COc1ccc(S(=O)(=O)Nc2nccc(-c3cc(F)c4nc(NC(C)=O)sc4c3)n2)cc1 [Example 131, N-(4-fluoro-6-(2-(((4-methoxyphenyl)sulfonyl)amino)-4-pyrimidinyl)-1,3-benzothiazol-2-yl)acetamide]
- IC50 [1, 2]: 1800 nM
- IC50 (PI3K α): 41.3 nM
- IC50 (PI3K β): 126 nM

Structure (SMILES): CC(=O)Nc1nc2ccc(-c3ccnc(OCc4ccccc4)n3)cc2s1 [Example 3, N-(6-(2-(benzyloxy)-4-pyrimidinyl)-1,3-benzothiazol-2-yl)acetamide]
- IC50 [1, 2]: 3510 nM
- IC50 (PI3K α): 95.6 nM
- IC50 (PI3K β): 240 nM

Structure (SMILES): CC(=O)Nc1nc2ccc(-c3ccnc(OCc4ccc(C)cc4)n3)cc2s1 [Example 106, N-(6-(2-((4-methylbenzyl)oxy)-4-pyrimidinyl)-1,3-benzothiazol-2-yl)acetamide]
- IC50 [1, 2]: 2530 nM
- IC50 (PI3K α): 220 nM
- IC50 (PI3K β): 1240 nM

Structure (SMILES): CC(=O)Nc1nc2ccc(-c3ccnc(Sc4cccc(C)c4)n3)cc2s1 [Example 35, N-(6-(2-((3-methylphenyl)sulfanyl)-4-pyrimidinyl)-1,3-benzothiazol-2-yl)acetamide]
- IC50 [1, 2]: 3580 nM
- IC50 (PI3K α): 57.6 nM
- IC50 (PI3K β): 1060 nM

From US7928140B2, “Benzothiazole PI3 kinase modulators for cancer treatment” (Amgen Inc., priority 2007, dated 2011)
